# Reference: patent publication US9034645B2, “Methods of identifying inhibitors of gene silencing in mammalian cells” (Oregon Health & Science University, priority 2008, dated 2015)
# How the values were obtained:
# Format in all cases: cell-based, mouse
# Ptet-HPRT in HPRT9 cells = assay: Inhibition of Dox-induced HPRT silencing (TG resistant clones); details: 100 nM TSA or 300 nM 5-Aza-dC for the last 24 hours of 7 days 1 μM Dox; TG selection (FIG. 5)
# Procedure: FIG. 5 is a series of digital images of dishes of TG resistant HPRT9 cells after various treatments. HPRT9 cells with Ptet-HPRT were exposed to 1 μM Dox for 7 days (Dox) to induce HPRT silencing. Some cells were also exposed 100 nM TSA (Dox+TSA) or 300 nM 5-Aza-dC (Dox+AzaC) on day 7 of Dox treatment. Control (Untreated) cells were not exposed to Dox, TSA, or 5-Aza-dC. 1×10^5 cells were plated per dish in TG medium and the dishes were stained after 12 days. The dark circles depict clones of cells that survived TG selection (TG resistant cells).
# If so, silencing should be prevented by inhibiting histone deacetylation. To test this, experiments in which silencing is induced by exposure to Dox were repeated (see Example 2), but in this case the cells were exposed to TSA for the last 24 hours of Dox exposure.
# [1] = system: silenced Aprt allele in D3, D7, D3S1 cells; assay: Aprt mRNA expression in cell lines with silenced Aprt (qRT-PCR); details: for Aprt expression after treatment / Aprt expression / mRNA levels after treatment: overnight 3 μM 5-aza-dC or 300 nM TSA, 24 hours recovery (FIG. 12); for Aprt expression / mRNA levels after treatment: D7 cell line; for increase of Aprt mRNA levels as compared to untreated cells: 300 nM TSA
# Procedure: FIG. 12 is a bar graph showing relative Aprt mRNA expression in parental cells with active Aprt expression (H22) and DAP-resistant cell lines with silenced Aprt expression (D7, D3, and D3S1) in untreated cells and cells treated with 3 μM 5-aza-dC or 300 nM TSA. Results are the average of triplicate reactions with error bars indicating the standard deviation.
# Total RNA was isolated from cell cultures with the RNeasy® Mini Kit (Qiagen, Valencia, Calif.) according to the manufacturer's instructions. Total RNA samples were converted to cDNA using Quantitect® Reverse Transcription Kit (Qiagen, Valencia, Calif.) with removal of genomic DNA contamination. 100 ng cDNA was used as input in subsequent quantitative-PCR analysis for either Aprt amplification across the exon 2-3 splice site with the sense primer qAprt-F 5′-CTCTTGGCCAGTCACCTGAAG-3′ (SEQ ID NO: 4), the antisense primer qAprt-R 5′-TCTAGACCTGCGATGTAGTCGATCT-3′ (SEQ ID NO: 5) and the TaqMan probe 5′-FAM-CAC GCA CAG CGG C-MGB-3′ (SEQ ID NO: 6) or Gapdh (Mouse TaqMan Endogenous Control, Applied Biosystems) with iQ Supermix (Bio-Rad) and a Bio-Rad iCycler.
# Cells were treated overnight (about 16 hours) with media containing 300 nM TSA (Wako USA, Richmond, Va.) to inhibit histone deacetylation, 3 μM 5-aza-dC (Sigma-Aldrich, St. Louis, Mo.) to inhibit DNA methylation, or the combination of 300 nM TSA and 3 μM 5-aza-dC. Cells were allowed to recover 24 hours in DMEM after drug treatment before harvesting for RNA purification.
# [2] = system: reactivated HPRT in H4-derived clones; assay: Re-silencing frequency of reactivated Ptet-HPRT clones (TG selection); details: overnight 300 nM 5-aza-dC before TG selection (FIG. 15)
# Procedure: FIG. 15 is a bar graph showing inactivation frequency of H4-derived clones with silenced and reactivated HPRT expression after overnight treatment with vehicle (Untreated), 300 nM 5-aza-dC (Aza-dC) or 100 nM TSA (TSA) before selecting against HPRT activity with TG. Frequencies represent the fraction of cell colonies surviving after two weeks of TG selection.
# A DIF6 derived cell line expressing HPRT under the control of the Ptet system was established as described in Example 1. Gene silencing was induced following repression of HPRT expression in the presence of Dox and spontaneous reactivant cell lines that grew well in AzHx medium were isolated. Re-silencing frequency was measured in the presence of the DNA methylation inhibitor 5-aza-dC or the HDAC inhibitor TSA.
# [3] = system: silenced HPRT allele in H3TG3 cells; assay: HPRT reversion frequency of TG resistant cells with silenced Ptet-HPRT (HAz selection); details: 100 nM TSA and/or 300 nM 5-aza-dC for 24 hours, 24 hour recovery, HAz medium (FIG. 3)
# Procedure: Reversion frequencies were determined for a cell line with a silenced HPRT allele after no treatment (Untreated), treatment with 300 nM 5-aza-2′-deoxycytidine (AzaC) for 24 hours, treatment with 100 nM trichostatin A (TSA) for 24 hours, or a combination of 5-Aza-dC and TSA at the same concentrations for 24 hours. Revertant cells were selected with medium containing hypoxanthine and azaserine.
# TSA was therefore used as a probe to determine if histone deacetylation played a significant role in the silencing phenotype. […] For this experiment, 1×10^6 cells were plated in a T-75 flask and treated with 100 nM TSA for 24 hours. After an additional 24 hour recovery time, the cells were re-plated in 100 mm dishes (1×10^5 cells per dish) in HAz medium to select for cells that regained HPRT expression. […] For this experiment, the cells were treated identically to those used for the TSA experiment, except they were exposed to 300 nM 5-aza-dC instead.
# [4] = system: BRCA1-HPRT construct (human BRCA1 promoter); assay: Reversion of hypoxia-induced TG resistant clones containing BRCA1-HPRT; details: for reversion / reactivation of hypoxia-induced BRCA1-HPRT TG resistant clones: TSA 300 nM (Table 3, FIG. 8), 5-Aza-dC concentration not given; for TSA-Induced Reversion Frequency: TSA 300 nM
# Procedure: FIG. 8 is a bar graph showing reactivation frequency of BSH8 TG resistant clones treated with 300 nM TSA for 16 hours or in the absence of TSA (untreated).
# (§1) To confirm that silencing (as opposed to mutation) was induced by hypoxia exposure, several BRCA1-HRPT TG resistant clones induced by hypoxia were expanded and tested to determine if they could yield revertant cells after exposure to TSA (300 nM) as presented in Example 3 for cells with silenced Ptet-HPRT constructs. […] Consistent with that result, HPRT mRNA was reduced in the TG resistant clones and restored in TSA-induced revertants.
# BRCA1-HPRT in BSH8 cells = assay: Inhibition of hypoxia-induced silencing of BRCA1-HPRT (TG resistance frequency); details: hypoxia two weeks, TSA 24 hours prior to TG selection (FIG. 9)
# Procedure: FIG. 9 is a bar graph showing TG resistance frequency for BSH8 cells exposed to normoxia or hypoxia for two weeks and then selected under normoxic conditions with TG. An aliquot of the hypoxia exposed cells was treated with TSA for 24 hours (hypoxia+TSA) prior to TG selection.
# Two BRCA1-HPRT cell lines obtained with this approach (BSH2 and BSH8) were exposed to hypoxic conditions (growth in an atmosphere of about 95% nitrogen and 5% oxygen) for two weeks and then exposed to 2.5 μg/ml TG under hypoxic conditions for two additional weeks to select for TG resistant cells. […] Thus, the resistance phenotype became independent of hypoxia.
# as §1
# BRCA1-HPRT [5] = assay: HPRT mRNA in BRCA1-HPRT transfectants exposed to CoCl2; details: 50 μM or 100 μM CoCl2 for two weeks (FIG. 10A)
# Procedure: FIG. 10A is a bar graph showing HPRT mRNA levels (normalized to GAPDH) in BRCA1-HPRT transfectants exposed to 50 μM or 100 μM CoCl2 for two weeks.
# (§2) BRCA1-HPRT and MLH1-HPRT cell lines as described in Example 5 were exposed to CoCl2 for two weeks, followed by selection of TG resistant clones. […] Expression from the MLH1 promoter was also repressed by exposure to CoCl2.
# [6] = system: MLH1 promoter (MLH1-HPRT); assay: Expression from the MLH1 promoter in MLH1-HPRT cells exposed to CoCl2; details: CoCl2 exposure
# Text: as §2
# BRCA1-HPRT [7] = assay: TG resistance frequency of BRCA1-HPRT transfectants exposed to CoCl2; details: 50 μM or 100 μM CoCl2 for two weeks, then TG selection (FIG. 10B)
# Procedure: FIG. 10B is a bar graph showing TG resistance frequency for BRCA1-HPRT transfectants exposed to 50 μM or 100 μM CoCl2 for two weeks, followed by TG selection.
# as §2
# Ptet-HPRT [8] = assay: HPRT mRNA by qRT-PCR in Ptet-HPRT cells exposed to Dox; details: after removal of Dox from the medium
# Text: The cell lines described in Example 1 were used to determine if gene silencing can be induced by transient reduction of gene expression. […] In other words, Dox can reduce but not eliminate gene expression. HPRT mRNA was restored to the original levels observed in the absence of Dox within 2 days after Dox was removed from the medium.
# Ptet-HPRT [9] = assay: Induction of silencing via repression of Ptet-HPRT by Dox (TG resistance frequency); details: 1 μM Dox 7 days, then TG and puromycin selection without Dox
# Procedure: FIG. 2 is a bar graph showing silencing frequency as a function of time of Dox exposure. HPRT 3 cells with Ptet-HPRT were exposed to 1 μM Dox for the times indicated before being released from Dox and selected with 6-thioguanine (TG). TG resistance frequencies are plotted. No TG resistant clones were identified after one or two weeks of growth in medium without Dox. The HPRT 3 cell line was created by inserting the Ptet-HPRT construct and the tet-responsive transcription activator construct into the genome of a mouse cell line termed DIF6.
# To determine if gene repression could induce silencing, three cell lines expressing HPRT under control of the Ptet promoter (Ptet-HPRT) were exposed to Dox for 7 days and then selected with TG in the absence of Dox. These cells lines were chosen because 1) each gave few or no spontaneous TG resistant clones and 2) Ptet-HPRT was integrated near the bacterial puromycin (pur) selectable gene, which allowed puromycin selection to be used to prevent deletion of Ptet-HPRT. […] For this experiment, 1×10^6 cells were exposed to 1 μM Dox for 7 days, the Dox was removed from the medium, the cells re-plated in 100 mm dishes at a density of 1×10^5 cells per dish and exposed to TG (5 μg/ml) and puromycin (1.5 μg/ml).
# [10] = system: silenced HPRT allele in H3TG3 cells; assay: Reactivation of silenced HPRT, mRNA by qRT-PCR; details: 5 or 15 μM SFN for 24 hours, RNA 24 hours after exposure; compared with 300 nM 5-aza-dC (FIG. 4)
# Procedure: Relative levels of HPRT mRNA were determined in H3TG3 cells exposed to 300 nM 5-Aza-dC, 5 μM SFN, or 15 μM SFN for 24 hours. RNA was collected after an additional 24 hours and quantitative real time PCR (qRT-PCR) was used to determine mRNA levels, which were set to 1.0 for untreated cells.
# RNA levels instead of reactivation frequencies were used as the endpoint for this experiment.
# Ptet-HPRT in HPRT3 cells = assay: Relative HPRT expression in Dox exposed cells treated with TSA (qRT-PCR); details: 1 μM Dox 7 days, TSA on day 7 (FIG. 6)
# Procedure: FIG. 6 is a bar graph showing relative HPRT expression after Dox exposed HPRT3 cells were treated with TSA. The HPRT3 cells expressing Ptet-HPRT were treated with 1 μM Dox for 6 days and on day 7 some cells were exposed to both Dox and TSA (at concentrations shown). RNA was collected at the end of the 7th day and assayed for HPRT levels with qRT-PCR.
compound,measurement,setting,value
"Nc1ncn([C@H]2C[C@H](O)[C@@H](CO)O2)c(=O)n1 [5-aza-dC, 5-aza-2′-deoxycytidine]",induction of cells with silenced HPRT alleles,Ptet-HPRT in HPRT9 cells,did not inhibit
same,Aprt expression after treatment,[1]; D3S1 cell line,reactivated expression
same,Aprt expression after treatment,[1]; D3 cell line,reactivated expression
same,Aprt expression / mRNA levels after treatment,[1],did not alter expression
same,re-silencing frequency,[2],essentially unchanged
same,frequency of revertant cells,[3],induced revertant cells
same,reversion / reactivation of hypoxia-induced BRCA1-HPRT TG resistant clones,[4],did not reactivate the silenced clones
same,hypoxia-induced silencing of the BRCA1 promoter,BRCA1-HPRT in BSH8 cells,did not inhibit the induction of silencing
"[Cl][Co][Cl] [CoCl2, cobalt chloride]",BRCA1-HPRT expression,BRCA1-HPRT [5],repressed in a dose-dependent manner
same,Expression from the MLH1 promoter,[6],repressed
same,TG-resistant clones,BRCA1-HPRT [7],only arose in BRCA1-HPRT cells exposed to 100 μM CoCl2
"C[C@H]1c2cccc(O)c2C(=O)C2=C(O)[C@]3(O)C(=O)C(C(N)=O)=C(O)[C@@H](N(C)C)[C@@H]3[C@@H](O)[C@@H]21 [Dox, doxycycline]",time to restoration of HPRT mRNA to original levels after Dox was removed,Ptet-HPRT [8],≤ 2 days
same,Silencing Frequency,Ptet-HPRT [9]; HPRT 1 cell line,9.4 × 10^−3
same,Silencing Frequency,Ptet-HPRT [9]; HPRT 3 cell line,2.1 × 10^−4
same,Silencing Frequency,Ptet-HPRT [9]; HPRT 4 cell line,1.6 × 10^−4
"C[S+]([O-])CCCCN=C=S (centres unmarked) [SFN, sulforaphane]",reactivation of silenced HPRT allele (RNA levels),[10],"reactivate the silenced HPRT allele in a dose dependent manner, and at levels greater than that for exposure with 5-aza-dC"
"CC(/C=C/C(=O)NO)=C\[C@@H](C)C(=O)c1ccc(N(C)C)cc1 [TSA, trichostatin A]",HPRT expression in the presence of Dox,Ptet-HPRT in HPRT3 cells,restored a level of HPRT expression
same,induction of cells with silenced HPRT alleles,Ptet-HPRT in HPRT9 cells,significantly inhibited
same,increase of Aprt mRNA levels as compared to untreated cells,[1]; D3S1 cell line,8 fold
same,increase of Aprt mRNA levels as compared to untreated cells,[1]; D3 cell line,1.5 fold
same,Aprt expression / mRNA levels after treatment,[1],no affect
same,frequency of revertant cells,[3],increased
same,TSA-Induced Reversion Frequency,[4]; TG cell line BSH8TG22,6.9 × 10^−4
same,TSA-Induced Reversion Frequency,[4]; TG cell line BSH8TG23,1.0 × 10^−4
same,reversion / reactivation of hypoxia-induced BRCA1-HPRT TG resistant clones,[4],induced revertant cells
same,hypoxia-induced silencing of the BRCA1 promoter,BRCA1-HPRT in BSH8 cells,inhibited hypoxia-induced silencing
